Experimental data: patent US8871753B2, “Macrocyclic compounds and their use as kinase inhibitors” (Incyte Corporation, priority 2008, dated 2014)
Where a name gives a salt, the structure may show the parent alone. Read-outs that look alike come from different tables or passages of the source.

Assays:
Assay type in all cases: biochemical
[1] = target: T1, Recombinant Human Anaplastic Lymphoma Kinase (Homo sapiens, UniProt Q9UM73); test: ALK HTRF kinase assay; conditions: for IC50: Table D1
T1 construct: purchased Invitrogen, Carlsbad, Calif
How it was run: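 Recombinant human ALK phosphorylated a biotinylated synthetic peptide. Phosphotyrosine was detected by TR-FRET between a Eu-labelled anti-phosphotyrosine antibody and streptavidin-allophycocyanin. IC50 values came from fitting signal against inhibitor concentration to a four-parameter logistic equation with variable Hill slope.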

TYK2 = TYK2 (Homo sapiens, UniProt P29597); test: TYK2 kinase inhibition (Table A1)
[2] = target: T2, human JAK3 (a.a. 781-1124) (Homo sapiens, UniProt P52333); test: In vitro JAK kinase assay (HTRF, phosphorylation of a biotinylated peptide), JAK3
T2 construct: JAK3 (a.a. 781-1124); His tag (N); made in house; host or cells: insect cells (baculovirus)
How it was run: (§1)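 Kinase activity was measured as phosphorylation of a biotinylated peptide, with ATP at 90 μM for JAK1, 30 μM for JAK2 and 3 μM for JAK3. Reactions ran 1 hr at room temperature, were stopped with EDTA plus SA-APC and Eu-Py20, and were read by HTRF after 40 minutes of antibody binding.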

[3] = target: T3, human JAK2 (a.a. 828-1132) (Homo sapiens, UniProt O60674); test: In vitro JAK kinase assay (HTRF, phosphorylation of a biotinylated peptide), JAK2
T3 construct: JAK2 (a.a. 828-1132); His tag (N); made in house; host or cells: insect cells (baculovirus)
How it was run: as §1

[4] = target: T4, human JAK1 (a.a. 837-1142) (Homo sapiens, UniProt P23458); test: In vitro JAK kinase assay (HTRF, phosphorylation of a biotinylated peptide), JAK1; conditions: read-out: JAK1 IC50
T4 construct: human JAK1 (a.a. 837-1142); His tag (N); made in house; host or cells: insect cells (baculovirus)
How it was run: as §1

[5] = compound at 500 nM or 1 mM, 90 μM ATP
[6] = method AA1 (3 μM ATP) or AA2 (1000 μM ATP), not stated per value
[7] = method AA1 (30 μM ATP) or AA2 (1000 μM ATP), not stated per value
[8] = method AA1 (90 μM ATP) or AA2 (1000 μM ATP), not stated per value
[9] = compound at a concentration of 500 nM or 1 mM (not specified), cells shown as percentage

T1 sequence (Q9UM73 19-1620): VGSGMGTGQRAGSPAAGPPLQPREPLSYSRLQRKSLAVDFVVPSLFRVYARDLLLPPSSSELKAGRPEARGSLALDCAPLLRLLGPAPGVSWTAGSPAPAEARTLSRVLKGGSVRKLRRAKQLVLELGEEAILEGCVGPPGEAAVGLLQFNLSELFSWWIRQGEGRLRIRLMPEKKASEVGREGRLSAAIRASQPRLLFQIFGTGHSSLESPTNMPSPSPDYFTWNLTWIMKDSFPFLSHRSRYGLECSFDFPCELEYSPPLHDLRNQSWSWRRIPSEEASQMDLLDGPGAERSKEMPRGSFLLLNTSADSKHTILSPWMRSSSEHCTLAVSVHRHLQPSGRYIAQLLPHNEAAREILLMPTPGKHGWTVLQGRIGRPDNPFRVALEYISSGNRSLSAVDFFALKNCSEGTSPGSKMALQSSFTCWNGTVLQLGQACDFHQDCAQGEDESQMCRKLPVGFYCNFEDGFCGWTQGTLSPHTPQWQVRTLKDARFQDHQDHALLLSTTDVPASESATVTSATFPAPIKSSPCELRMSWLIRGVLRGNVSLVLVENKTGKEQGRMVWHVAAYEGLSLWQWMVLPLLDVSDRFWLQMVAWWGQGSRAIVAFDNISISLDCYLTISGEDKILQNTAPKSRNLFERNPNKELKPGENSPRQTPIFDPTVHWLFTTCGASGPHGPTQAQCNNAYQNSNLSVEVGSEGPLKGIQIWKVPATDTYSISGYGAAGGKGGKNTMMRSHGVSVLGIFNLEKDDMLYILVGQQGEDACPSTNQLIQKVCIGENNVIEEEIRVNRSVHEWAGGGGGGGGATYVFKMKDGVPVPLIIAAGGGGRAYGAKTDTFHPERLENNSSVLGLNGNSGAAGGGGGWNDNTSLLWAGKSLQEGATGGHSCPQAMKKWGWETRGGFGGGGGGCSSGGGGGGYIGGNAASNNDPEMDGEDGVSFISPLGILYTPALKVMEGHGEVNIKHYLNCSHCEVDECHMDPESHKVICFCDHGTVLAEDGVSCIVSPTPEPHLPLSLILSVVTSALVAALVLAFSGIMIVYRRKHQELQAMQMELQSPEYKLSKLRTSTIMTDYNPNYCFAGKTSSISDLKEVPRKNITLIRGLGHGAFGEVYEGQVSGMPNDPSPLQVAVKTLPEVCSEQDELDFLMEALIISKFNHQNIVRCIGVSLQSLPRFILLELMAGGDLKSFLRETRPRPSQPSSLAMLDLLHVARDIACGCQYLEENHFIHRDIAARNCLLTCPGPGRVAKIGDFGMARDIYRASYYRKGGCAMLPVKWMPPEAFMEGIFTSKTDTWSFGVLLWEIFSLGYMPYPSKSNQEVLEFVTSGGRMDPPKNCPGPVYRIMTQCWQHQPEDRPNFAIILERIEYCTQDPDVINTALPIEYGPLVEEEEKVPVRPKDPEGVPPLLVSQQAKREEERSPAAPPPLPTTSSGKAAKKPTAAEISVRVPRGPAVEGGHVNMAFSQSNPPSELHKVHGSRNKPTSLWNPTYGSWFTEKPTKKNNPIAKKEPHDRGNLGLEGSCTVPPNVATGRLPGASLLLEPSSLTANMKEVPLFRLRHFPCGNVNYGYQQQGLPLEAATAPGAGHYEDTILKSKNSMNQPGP
TYK2, sequence (P29597 whole entry): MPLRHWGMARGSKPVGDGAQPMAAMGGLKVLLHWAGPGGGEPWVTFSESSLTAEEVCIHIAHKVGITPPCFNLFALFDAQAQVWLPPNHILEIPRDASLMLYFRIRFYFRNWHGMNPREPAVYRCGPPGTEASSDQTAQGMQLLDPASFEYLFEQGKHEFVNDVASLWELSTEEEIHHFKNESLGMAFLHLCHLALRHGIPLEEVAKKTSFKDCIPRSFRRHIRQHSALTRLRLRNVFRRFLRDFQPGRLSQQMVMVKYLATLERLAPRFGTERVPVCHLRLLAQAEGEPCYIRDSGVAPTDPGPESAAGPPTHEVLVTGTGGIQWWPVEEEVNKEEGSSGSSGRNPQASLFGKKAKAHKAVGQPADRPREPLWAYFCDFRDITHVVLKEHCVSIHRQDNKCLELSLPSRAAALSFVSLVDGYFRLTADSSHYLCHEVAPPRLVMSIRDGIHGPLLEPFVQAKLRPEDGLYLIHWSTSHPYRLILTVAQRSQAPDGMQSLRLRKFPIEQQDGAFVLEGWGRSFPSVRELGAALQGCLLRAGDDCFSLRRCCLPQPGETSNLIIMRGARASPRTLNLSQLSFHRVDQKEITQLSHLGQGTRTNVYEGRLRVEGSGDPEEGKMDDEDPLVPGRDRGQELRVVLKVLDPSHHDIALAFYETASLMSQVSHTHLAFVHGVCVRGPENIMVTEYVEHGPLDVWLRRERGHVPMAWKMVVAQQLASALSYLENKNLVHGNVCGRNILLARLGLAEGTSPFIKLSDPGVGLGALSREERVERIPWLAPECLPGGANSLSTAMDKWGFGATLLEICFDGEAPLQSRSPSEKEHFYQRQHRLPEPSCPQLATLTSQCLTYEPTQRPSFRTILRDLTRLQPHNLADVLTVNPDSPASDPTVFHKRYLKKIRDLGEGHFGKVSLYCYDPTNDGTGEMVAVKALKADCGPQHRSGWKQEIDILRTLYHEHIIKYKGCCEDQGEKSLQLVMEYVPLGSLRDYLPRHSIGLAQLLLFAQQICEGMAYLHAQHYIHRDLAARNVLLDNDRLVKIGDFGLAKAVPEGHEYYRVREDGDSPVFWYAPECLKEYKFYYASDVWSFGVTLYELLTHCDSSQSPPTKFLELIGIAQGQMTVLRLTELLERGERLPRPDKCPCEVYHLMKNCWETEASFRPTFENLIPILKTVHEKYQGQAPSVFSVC
T2 sequence (P52333 781-1124): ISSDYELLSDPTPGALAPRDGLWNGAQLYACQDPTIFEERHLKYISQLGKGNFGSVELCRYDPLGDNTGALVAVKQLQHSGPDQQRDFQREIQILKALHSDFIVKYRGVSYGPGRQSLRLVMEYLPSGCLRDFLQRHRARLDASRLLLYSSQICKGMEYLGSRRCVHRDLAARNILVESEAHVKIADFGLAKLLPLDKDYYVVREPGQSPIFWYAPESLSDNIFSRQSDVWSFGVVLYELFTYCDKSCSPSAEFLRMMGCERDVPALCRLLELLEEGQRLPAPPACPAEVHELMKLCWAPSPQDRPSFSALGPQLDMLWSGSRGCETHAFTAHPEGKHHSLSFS
T4 sequence (P23458 849-1154): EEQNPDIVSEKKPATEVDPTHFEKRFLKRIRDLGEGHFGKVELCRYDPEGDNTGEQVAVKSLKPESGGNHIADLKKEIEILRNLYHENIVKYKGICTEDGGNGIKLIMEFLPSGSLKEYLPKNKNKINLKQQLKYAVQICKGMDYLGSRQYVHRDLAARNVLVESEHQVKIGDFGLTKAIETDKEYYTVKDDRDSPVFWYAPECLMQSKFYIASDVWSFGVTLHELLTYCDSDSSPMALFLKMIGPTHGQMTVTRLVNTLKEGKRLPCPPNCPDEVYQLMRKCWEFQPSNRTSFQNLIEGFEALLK
T3 sequence (O60674 828-1132): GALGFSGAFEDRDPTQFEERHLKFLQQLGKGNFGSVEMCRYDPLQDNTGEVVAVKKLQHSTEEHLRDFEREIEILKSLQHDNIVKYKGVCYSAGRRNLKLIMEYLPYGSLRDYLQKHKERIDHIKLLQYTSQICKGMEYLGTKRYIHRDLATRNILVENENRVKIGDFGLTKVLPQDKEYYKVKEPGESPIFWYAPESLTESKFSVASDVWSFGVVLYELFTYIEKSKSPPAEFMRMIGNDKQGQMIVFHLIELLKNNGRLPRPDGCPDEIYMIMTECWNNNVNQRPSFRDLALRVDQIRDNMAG

Structure (SMILES) | ALK % of inhibition at a concentration of 500 nM or 1 mM [1, 9] [%] | IC50 (TYK2; Table B1) [nM] | IC50 ([2]; Table B1) [nM] | IC50 ([3]; Table B1) [nM] | IC50 ([4]; Table B1) [nM] | also measured
CC(=O)N1CCN(c2cc(-c3cc4cc(c3)Nc3ncc(Cl)c(n3)Nc3cccc(c3)OCC4)ccn2)CC1 [Example D35, 19-[2-(4-Acetylpiperazin-1-yl)pyridin-4-yl]-6-chloro-14-oxa-2,4,8,23-tetraazatetracyclo[15.3.1.1(3,7).1(9,13)]tricosa-1(21),3(23),4,6,9(22),10,12,17,19-nonaene bis(trifluoroacetate)] | – | – | – | – | – | IC50 ([1]; 90 μM ATP): 150 nM; IC50 (TYK2; Table D1): 4.3 nM; IC50 ([2]; Table D1): 7.7 nM; IC50 ([3]; Table D1): 0.4 nM; IC50 ([4]; Table D1): 0.7 nM
O=C(COc1ccc2cc1CCc1cncc(c1)Nc1ncc(Cl)c(n1)N2)N1CCn2c(nnc2C(F)(F)F)C1 [Example A249, 6-Chloro-12-{2-oxo-2-[3-(trifluoromethyl)-5,6-dihydro[1,2,4]triazolo[4,3-a]pyrazin-7(8H)-yl]ethoxy}-2,4,8,18,22pentaazatetracyclo[14.3.1.1(3,7).1(9,13)]docosa1(20),3(22),4,6,9(21),10,12,16,18-nonaene bis(trifluoroacetate)] | – | – | – | – | – | ALK % of inhibition at a concentration of 500 nM or 1 mM [1, 5]: 28%; IC50 (TYK2): > 400 nM; IC50 [2, 6]: > 400 nM; IC50 [3, 7]: > 400 nM; IC50 [4, 8]: 226 nM
CC(=O)N1CC[C@H](NC(=O)Nc2ccc3cc2CCc2cccc(c2)Nc2ncc(Cl)c(n2)N3)C1 [Example B168, N-[(3S)-1-Acetylpyrrolidin-3-yl]-N′-[6-chloro-2,4,8,22-tetraazatetracyclo[14.3.1.1(3,7).1(9,13)]docosa-1(20),3(22),4,6,9(21),10,12,16,18-nonaen-12-yl]urea trifluoroacetate] | 21 | 17 | 67 | 12 | 2.8 | –
O=C(CC1CCN(C(=O)c2cccnc2)CC1)Nc1ccc2cc1CCc1cncc(c1)Nc1ncc(Cl)c(n1)N2 [Example A188, N-[6-Chloro-2,4,8,18,22-pentaazatetracyclo[14.3.1.1(3,7).1(9,13)]docosa-1(20),3(22),4,6,9(21),10,12,16,18-nonaen-12-yl]-2-[1-(pyridin-3-ylcarbonyl)piperidin-4-yl]acetamide tris(trifluoroacetate)] | – | – | – | – | – | ALK % of inhibition at a concentration of 500 nM or 1 mM [1, 5]: 26%; IC50 (TYK2): > 200 nM; IC50 [2, 6]: > 200 nM; IC50 [3, 7]: > 200 nM; IC50 [4, 8]: 34 nM
O=C(NCc1ccco1)Nc1cc2cc(c1)OCCSc1cccc(c1)Nc1nc(ncc1Cl)N2 [Example D67, N-[6-Chloro-17-oxa-14-thia-2,4,8,24-tetraazatetracyclo[16.3.1.1(3,7).1(9,13)]tetracosa-1(22),3(24),4,6,9(23),10,12,18,20-nonaen-20-yl]-N′-(2-furylmethyl)urea trifluoroacetate] | – | – | – | – | – | IC50 ([1]; 90 μM ATP): > 1000 nM; IC50 (TYK2; Table D1): 2.4 nM; IC50 ([2]; Table D1): 8.4 nM; IC50 ([3]; Table D1): 1.8 nM; IC50 ([4]; Table D1): 3.2 nM
O=C(O)c1cccc(S(=O)(=O)Nc2ccc3cc2CCc2cccc(c2)Nc2ncc(Cl)c(n2)N3)c1 [Example B159, 3-({[6-Chloro-2,4,8,22-tetraazatetracyclo[14.3.1.1(3,7).1(9,13)]docosa-1(20),3(22),4,6,9(21),10,12,16,18-nonaen-12-yl]amino}sulfonyl)benzoic acid trifluoroacetate] | 82 | 1.6 | 3.1 | 0.46 | 1.3 | –
O=C(Nc1ccc2cc1CCc1cncc(c1)Nc1ncc(Cl)c(n1)N2)N1CCN(c2ccccc2F)CC1 [Example B295, N-[6-Chloro-2,4,8,18,22-pentaazatetracyclo[14.3.1.1(3,7).1(9,13)]docosa-1(20),3(22),4,6,9(21),10,12,16,18-nonaen-12-yl]-4-(2-fluorophenyl)piperazine-1-carboxamide tris(trifluoroacetate)] | 50 | 150 | > 200 | 199 | 30 | –
Clc1cnc2nc1Nc1cccc(c1)SCCc1cccc(c1)N2 [Example D18, 6-Chloro-14-thia-2,4,8,23-tetraazatetracyclo[15.3.1.1(3,7).1(9,13)]tricosa-1(21),3(23),4,6,9(22),10,12,17,19-nonaene trifluoroacetate] | – | – | – | – | – | IC50 ([1]; 90 μM ATP): 327 nM; IC50 (TYK2; Table D1): 19 nM; IC50 ([2]; Table D1): 24 nM; IC50 ([3]; Table D1): 6.6 nM; IC50 ([4]; Table D1): 5.4 nM
CC(C)C(=O)N1CC[C@H](NC(=O)Nc2ccc3cc2CCc2cccc(c2)Nc2ncc(Cl)c(n2)N3)C1 [Example B229, N-[6-Chloro-2,4,8,22-tetraazatetracyclo[14.3.1.1(3,7).1(9,13)]docosa-1(20),3(22),4,6,9(21),10,12,16,18-nonaen-12-yl]-N′-[(3S)-1-isobutyrylpyrrolidin-3-yl]urea trifluoroacetate] | 6.5 | 19 | 76 | 17 | 9 | –
O=C(Nc1ccccc1CCl)Nc1ccc2cc1CCc1cccc(c1)Nc1ncc(Cl)c(n1)N2 [Example B108, N-[2-(Chloromethyl)phenyl]-N′-[6-chloro-2,4,8,22-tetraazatetracyclo[14.3.1.1(3,7).1(9,13)]docosa-1(20),3(22),4,6,9(21),10,12,16,18-nonaen-12-yl]urea trifluoroacetate] | 21 | 2.1 | 23 | 4.6 | 1.6 | –
O=C(Nc1ccc2cc1CCc1cccc(c1)Nc1ncc(Cl)c(n1)N2)N[C@H]1CCN(C(=O)c2cccnc2)C1 [Example B171, N-[6-Chloro-2,4,8,22-tetraazatetracyclo[14.3.1.1(3,7).1(9,13)]docosa-1(20),3(22),4,6,9(21),10,12,16,18-nonaen-12-yl]-N′-[(3S)-1-(pyridin-3-ylcarbonyl)pyrrolidin-3-yl]urea bis(trifluoroacetate)] | 15 | 30 | 51 | 12 | 2.8 | –
CNC(=O)N1CC[C@H](NC(=O)Nc2ccc3cc2CCc2cccc(c2)Nc2ncc(Cl)c(n2)N3)C1 [Example B169, (3S)-3-[({[6-Chloro-2,4,8,22-tetraazatetracyclo[14.3.1.1(3,7).1(9,13)]docosa-1(20),3(22),4,6,9(21),10,12,16,18-nonaen-12-yl]amino}carbonyl)amino]-N-methylpyrrolidine-1-carboxamide Trifluoracetate] | 17 | 26 | 47 | 12 | 3.3 | –
N#Cc1ccccc1S(=O)(=O)Nc1cc2cc(c1)Nc1nc(ncc1Cl)Nc1cccc(c1)CC2 [Example B216, N-[6-Chloro-2,4,8,22-tetraazatetracyclo[14.3.1.1(3,7).1(9,13)]docosa-1(20),3(22),4,6,9(21),10,12,16,18-nonaen-11-yl]-2-cyanobenzenesulfonamide trifluoroacetate] | 1.3 | 66 | 166 | 29 | 48 | –
Cc1n[nH]c(C)c1-c1cc2cc(c1)Nc1ncc(Cl)c(n1)Nc1cccc(c1)OCC2 [Example D30, 6-Chloro-19-(3,5-dimethyl-1H-pyrazol-4-yl)-14-oxa-2,4,8,23-tetraazatetracyclo[15.3.1.1(3,7).1(9,13)]tricosa-1(21),3(23),4,6,9(22),10,12,17,19-nonaene bis(trifluoroacetate)] | – | – | – | – | – | IC50 ([1]; 90 μM ATP): 157 nM; IC50 (TYK2; Table D1): 15 nM; IC50 ([2]; Table D1): 49 nM; IC50 ([3]; Table D1): 0.6 nM; IC50 ([4]; Table D1): 4.1 nM
